Key:
persian speedwell = assay: Test Example 5: herbicidal effect by foliage application, plastic box (Table 20, symbol R); type: in vivo, Persian speedwell (Veronica persica); conditions: foliage application, three weeks after application
Outline: (§1)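 Plants were sown into sterilized diluvial soil under about 1.5 cm cover and kept in a greenhouse at 25° C. to 30° C. Fourteen days on, foliage received an even spray of the diluted emulsion. Herbicidal or crop effect was judged three weeks afterwards.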

southern crabgrass = assay: Test Example 5: herbicidal effect by foliage application, plastic box (Table 20, symbol F); type: in vivo, southern crabgrass (Digitaria ciliaris); conditions: foliage application, three weeks after application
Outline: as §1

lambsquarters = assay: Test Example 5: herbicidal effect by foliage application, plastic box (Table 20, symbol O); type: in vivo, lambsquarters (Chenopodium album); conditions: foliage application, three weeks after application
From the text: (§2) [Test Example 5] Herbicidal Effect Test by Foliage Application
(§3) Sterilized diluvial soil was placed in a plastic box having a length of 21 cm, a width of 13 cm, and a depth of 7 cm. The seeds of each of southern crabgrass, green foxtail, barnyard grass, wild oat, blackgrass, Italian ryegrass, windgrass, velvetleaf, redroot pigweed, lambsquarters, chickweed, false cleavers, persian speedwell, corn, soybean, rice, wheat, beet, and rapeseed were sowed in a spot-like manner and covered with the soil having a thickness of about 1.5 cm. Thereafter, the plants were grown in a greenhouse at 25° C. to 30° C. After 14-day growth of the plants, the emulsion agent of the compound of the present invention prepared according to Formulation Example 2 was diluted with water so as to achieve a predetermined herbicide amount, and the diluted emulsion agent was uniformly applied to a foliage part with a small-sized spray. Three weeks after the herbicide application, the effect of the herbicide on each plant was evaluated according to the criteria of Test Example 1.

barnyard grass [1] = assay: Test Example 3: herbicidal effect by foliage application, Wagner pot (Table 18, symbol H); type: in vivo, barnyard grass (Echinochloa crus-galli)
Outline: (§4)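 Plants were sown in alluvial soil held under 0.1–0.5 cm standing water and grown 14 days in a greenhouse at 25–30 °C. An emulsifiable formulation, water-diluted to the set dose, was then sprayed onto the foliage, and effects were scored three weeks later using previously defined criteria.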

barnyard grass [2] = assay: Test Example 5: herbicidal effect by foliage application, plastic box (Table 20, symbol H); type: in vivo, barnyard grass (Echinochloa crus-galli); conditions: foliage application, three weeks after application
From the text: as §2, §3

wild oat = assay: Test Example 5: herbicidal effect by foliage application, plastic box (Table 20, symbol I); type: in vivo, wild oat (Avena fatua); conditions: foliage application, three weeks after application
Outline: as §1

velvetleaf = assay: Test Example 5: herbicidal effect by foliage application, plastic box (Table 20, symbol M); type: in vivo, velvetleaf (Abutilon theophrasti); conditions: foliage application, three weeks after application
From the text: as §2, §3

green foxtail = assay: Test Example 5: herbicidal effect by foliage application, plastic box (Table 20, symbol G); type: in vivo, green foxtail (Setaria viridis); conditions: foliage application, three weeks after application
Outline: as §1

Italian ryegrass = assay: Test Example 5: herbicidal effect by foliage application, plastic box (Table 20, symbol K); type: in vivo, Italian ryegrass (Lolium multiflorum); conditions: foliage application, three weeks after application
Outline: as §1

Chinese sprangletop = assay: Test Example 3: herbicidal effect by foliage application, Wagner pot (Table 18, symbol D); type: in vivo, chinese sprangletop (Leptochloa chinensis)
Protocol: [Test Example 3] Herbicidal Effect Test by Foliage Application After alluvial soil was placed into 1/10000 are of Wagner pot, water was poured and mixed to form a submerged condition having a water depth of 0.1 cm to 0.5 cm. Seeds of barnyard grass, Chinese sprangletop, rice flat sedge, and rice were sowed and the pot was placed in a greenhouse at 25° C. to 30° C. for growth of the plants. After 14-day growth of the plants, the emulsion agent of the compound of the present invention prepared according to Formulation Example 2 was diluted with water so as to achieve a predetermined herbicide amount, and the diluted emulsion agent was uniformly applied to a foliage part with a small-sized spray. Three weeks after the herbicide application, the effect of the herbicide on each plant was evaluated according to the criteria of Test Example 1.

rice flat sedge = assay: Test Example 3: herbicidal effect by foliage application, Wagner pot (Table 18, symbol E); type: in vivo, rice flat sedge (Cyperus iria)
Outline: as §4

windgrass = assay: Test Example 5: herbicidal effect by foliage application, plastic box (Table 20, symbol L); type: in vivo, windgrass (Apera spica-venti); conditions: foliage application, three weeks after application
Outline: as §1

blackgrass = assay: Test Example 5: herbicidal effect by foliage application, plastic box (Table 20, symbol J); type: in vivo, blackgrass (Alopecurus myosuroides); conditions: foliage application, three weeks after application
From the text: as §2, §3

Row | SMILES | herbicidal effect on persian speedwell (R) (persian speedwell; 320 g/ha) | herbicidal effect on southern crabgrass (F) (southern crabgrass; 320 g/ha) | herbicidal effect on lambsquarters (O) (lambsquarters; 320 g/ha) | herbicidal effect on barnyard grass (H) (barnyard grass [1]; 320 g/ha) | herbicidal effect on barnyard grass (H) (barnyard grass [2]; 320 g/ha) | herbicidal effect on wild oat (I) (wild oat; 320 g/ha) | herbicidal effect on velvetleaf (M) (velvetleaf; 320 g/ha) | herbicidal effect on green foxtail (G) (green foxtail; 320 g/ha) | herbicidal effect on Italian ryegrass (K) (Italian ryegrass; 320 g/ha) | herbicidal effect on Chinese sprangletop (D) (Chinese sprangletop; 320 g/ha) | herbicidal effect on rice flat sedge (E) (rice flat sedge; 320 g/ha) | herbicidal effect on windgrass (L) (windgrass; 320 g/ha) | herbicidal effect on blackgrass (J) (blackgrass; 320 g/ha) | also measured
1 | COc1cc2sc(-c3ccc(F)cc3)c(-c3c(O)c(C)nn(C)c3=O)c2cc1-c1ccc(F)cc1 [5-078] | – | – | – | – | – | – | – | – | – | – | – | – | – | herbicidal effect on persian speedwell (R) (persian speedwell; 270 g/ha): 0 (Herbicidal rate of 5% or less (almost no effect)); herbicidal effect on southern crabgrass (F) (southern crabgrass; 270 g/ha): 4 (Herbicidal rate of 70% or more and less than 90%); herbicidal effect on lambsquarters (O) (lambsquarters; 270 g/ha): 1 (Herbicidal rate of 5% or more and less than 20%); herbicidal effect on barnyard grass (H) (barnyard grass [1]; 270 g/ha): 4 (Herbicidal rate of 70% or more and less than 90%); herbicidal effect on barnyard grass (H) (barnyard grass [2]; 270 g/ha): 4 (Herbicidal rate of 70% or more and less than 90%); herbicidal effect on wild oat (I) (wild oat; 270 g/ha): 0 (Herbicidal rate of 5% or less (almost no effect)); herbicidal effect on velvetleaf (M) (velvetleaf; 270 g/ha): 3 (Herbicidal rate of 40% or more and less than 70%); herbicidal effect on green foxtail (G) (green foxtail; 270 g/ha): 5 (Herbicidal rate of 90% or more (almost completely withered)); herbicidal effect on Italian ryegrass (K) (Italian ryegrass; 270 g/ha): 0 (Herbicidal rate of 5% or less (almost no effect)); herbicidal effect on Chinese sprangletop (D) (Chinese sprangletop; 270 g/ha): 4 (Herbicidal rate of 70% or more and less than 90%); herbicidal effect on rice flat sedge (E) (rice flat sedge; 270 g/ha): 3 (Herbicidal rate of 40% or more and less than 70%); herbicidal effect on windgrass (L) (windgrass; 270 g/ha): 0 (Herbicidal rate of 5% or less (almost no effect)); herbicidal effect on blackgrass (J) (blackgrass; 270 g/ha): 0 (Herbicidal rate of 5% or less (almost no effect))
2 | Cc1nn(C)c(=O)c(-c2c(-c3ccc(OC(F)F)cc3)sc3cc(Cl)c(Cl)cc23)c1O [5-086] | 5 (Herbicidal rate of 90% or more (almost completely withered)) | 0 (Herbicidal rate of 5% or less (almost no effect)) | 5 (Herbicidal rate of 90% or more (almost completely withered)) | 3 (Herbicidal rate of 40% or more and less than 70%) | 0 (Herbicidal rate of 5% or less (almost no effect)) | 0 (Herbicidal rate of 5% or less (almost no effect)) | 3 (Herbicidal rate of 40% or more and less than 70%) | 0 (Herbicidal rate of 5% or less (almost no effect)) | 0 (Herbicidal rate of 5% or less (almost no effect)) | 0 (Herbicidal rate of 5% or less (almost no effect)) | 0 (Herbicidal rate of 5% or less (almost no effect)) | 5 (Herbicidal rate of 90% or more (almost completely withered)) | 5 (Herbicidal rate of 90% or more (almost completely withered)) | –
3 | COc1ccccc1-c1sc2c(C)cc(C)cc2c1-c1c(O)c(C)nn(C)c1=O [6-002] | 4 (Herbicidal rate of 70% or more and less than 90%) | 0 (Herbicidal rate of 5% or less (almost no effect)) | 2 (Herbicidal rate of 20% or more and less than 40%) | 4 (Herbicidal rate of 70% or more and less than 90%) | 0 (Herbicidal rate of 5% or less (almost no effect)) | 0 (Herbicidal rate of 5% or less (almost no effect)) | 1 (Herbicidal rate of 5% or more and less than 20%) | 3 (Herbicidal rate of 40% or more and less than 70%) | 4 (Herbicidal rate of 70% or more and less than 90%) | 5 (Herbicidal rate of 90% or more (almost completely withered)) | 3 (Herbicidal rate of 40% or more and less than 70%) | 1 (Herbicidal rate of 5% or more and less than 20%) | 4 (Herbicidal rate of 70% or more and less than 90%) | –
